Literature values as cited in patent publication US20170176475A1, “NOVEL METHODS AND KITS FOR DETECTING A RIFAMYCIN, OR DERIVATIVE OR ANALOGUE THEREOF” (DREXEL UNIVERSITY, priority 2014, published 2017).

time by which nearly all the drug in the bile is present in the deacetylated form (bile, normal metabolizing patients): ≤ 6 h
time to peak plasma drug concentrations after intake (orally administered): two to four
Structure (SMILES): CO[C@H]1/C=C/O[C@@]2(C)Oc3c(C)c(O)c4c(O)c(c(/C=N/N5CCN(C)CC5)c(O)c4c3C2=O)NC(=O)/C(C)=C\C=C\[C@H](C)[C@H](O)[C@@H](C)[C@@H](O)[C@@H](C)[C@H](OC(C)=O)[C@@H]1C [rifampicin, (7S,9E,11S,12R,13S,14R,15R,16R,17S, 18S,19E,21Z)-2,15,17,27,29-pentahydroxy-11-methoxy-3,7,12,14,16,18,22-heptamethyl-26-{(E)-[(4-methylpiperazin-1-yl)imino]methyl}-6,23-dioxo-8,30-dioxa-24-azatetracyclo [23.3.1.1^4,7.0^5,28]triaconta-1(28),2,4,9,19,21,25(29),26-octaen-13-yl acetate]
